According to patent US20250000979A1, “TRIPLET-TRIPLET ENERGY TRANSFER WITH LIGHT EXCITATION AT LONG WAVELENGTHS AND METHODS THEREOF” (priority 2023, published 2025):
Several values for one entry are separate records, joined by “and”; a condition that tells them apart may be missing. Equal values may be shown once. Marks after values point to notes of the source that are not given here.

Experiments:
[1] = Photolysis of BODIPY prodrugs in solution, analysed by HPLC; assay type: physicochemical
Description: BODIPY photocage was conjugated with the free drug molecules to form photoactivable prodrugs with photolabile linkages, including ester and carbamate. The light illumination was performed with a NIR lamp, of which the parameters were 100 mW/cm^2, 690 nm for 5 min, in a N2-saturated solution containing 0.1 equiv. of Os(bptpy)2^2+ and 1 equiv. of prodrugs. […] In addition, the photocage was conjugated with drug molecules with amine groups to produce prodrugs with photolabile carbamate bonds.
The photolysis efficiency of BODIPY prodrugs were compared in different conditions, including different excitation wavelengths (690 nm or 530 nm), different ratios of Os(bptpy)2^2+, and different oxygen contents. […] The solvent was 88% methanol mixed by 10% dichloromethane and 2% acetone. For the N2-saturated groups, after dissolving the molecules, the solution was degassed with a vacuum pump for 10 min followed by gentle N2 blowing. After light irradiation, the resulted mixtures were refilled to 100 μL with methanol to avoid the error caused by solvent evaporation. The resulted solution was loaded onto the sampler and analyzed by high-performance liquid chromatography. An elution method was used to separate free drug, BODIPY photocage and prodrug on the C18 column.

[2] = Photoreaction quantum yields and cross sections (HPLC, Reinecke's salt actinometry); assay type: physicochemical
Description: Quantum yields of the photoreactions (Φ) are defined as:
The number of reacted molecules (e.g., consumption of prodrugs or generation of free drugs) were determined by HPLC. The absorbed photon number was determined by Reinecke's salt actinometry at excitation wavelengths of 530 nm and 690 nm^35, 36. The power densities were 50 mW/cm^2 (530 nm) and 100 mW/cm^2 (690 nm).

[3] = In vivo biodistribution by IVIS fluorescence imaging; set-up: species or system BALB/c nude mice; conditions: intravenous, DiR 100 μg/kg, HeLa tumor-bearing mice
Description: The tumors and major organs were excised for ex vivo fluorescence imaging 24-h post injection. […] It should be noted that the prodrug can be selectively activated in tumors by NIR light while those nanoparticles in the normal tissues and organs will not be activated, which can alleviate the side effects of chemotherapy.
BALB/c nude mice (female, 4 weeks, 15-20 g) were obtained from the Experimental Animal Center of University with access to food and water ad libitum. The animal experiment and procedures were approved by the Committee on the Use of Live Animals in Teaching & Research (CULATR), The University of Hong Kong. (Protocol No. 4381-17).
HeLa tumor-bearing mice was obtained by subcutaneously injecting HeLa cells for tumor implantation. HeLa cancer cells were collected by cell culture and trypsin digestion. The cells were washed by PBS and resuspended in DMEM medium without serum, in which collagen and Matrigel were added. 2×10^6 cells were dispersed in 100 μL mixture, which was subcutaneously injected into the mice at underarm area. […]
The biodistribution of free drug or nanoparticles in the HeLa tumor-bearing mice was measured by an in vivo fluorescence imaging system. […] The in vivo fluorescence imaging was performed at 1, 2, 8 and 24 h post injection and anesthesia at each time point. […]

[4] = Photophysical properties (UV-Vis absorption, emission, energy levels); assay type: physicochemical
Description: The absorption peak at about 492 nm is identified as the singlet metal-to-ligand charge transfer (^1MLCT) absorption, also termed as singlet-singlet (S-S) absorption. […] The two twistable bromophenyl groups of the bromophenyl terpyridine ligands extend the S-T absorption from 650 nm to 750 nm with increased absorption coefficient.
CombiFlash Rf chromatography instrument was purchased from Teledyne ISCO (Lincoln, USA) for chemical purification. Light sources used in this study were purchased from Yuanming Laser (Ningbo, China) and Mightex (CA, USA). The purity verification and photolysis study were conducted with a high-performance liquid chromatography (HPLC) system (Agilent technologies, 1260), attached with C-18 columns which were obtained from Agilent (Santa Clara, California, United States). Nuclear magnetic resonance (NMR) spectroscopy was collected by Bruker AVANCE III HD 500 spectrometer (MA, US). Fluorescence, phosphorescence and UV-vis spectra were collected by a SpectraMax M4 microplate reader (Molecular Devices, CA, US). The particle size and surface charge were recorded by a dynamic light scattering (DLS) device, Zetasizer Nano-ZS90 (Malvern instruments, UK). Transmission electron microscope (TEM) imaging was conducted on a Hitachi HT7700 TEM (Tokyo, Japan). ACEA NovoCyte Quanteon flow cytometer (ACEA Biosciences, CA, USA) was used for flow cytometry. In vivo and ex vivo imaging of the mice were conducted with an In Vivo Imaging System (PerkinElmer, USA). Devices for animal study like including balance and vernier caliper were kindly provided by The Centre for Comparative Medicine Research (CCMR), The University of Hong Kong.

[5] = Encapsulation efficiency and loading capacity of Os/BC NP (HPLC); assay type: physicochemical; conditions: component of Os/BC NP
Description: Flash nanoprecipitation method was used to fabricate the photosensitizer/prodrug-loading nanoparticles. […] Different formulations (Os NPs, BC NPs and Os/BC NPs) were then prepared with optimized ratios of components. Briefly, 224 μL of the mixed stock solution was added into 1.8 mL N2-saturated water under vortexing. The resulted solutions were added to dialysis bags (MW: 3400 Da) and dialyzed against 4 L of water for 24 h. The water out of dialysis bag was renewed every 8 h. The resulted solution of NPs was collected and filtrated with 220 nm filter. Finally, the NPs solutions were concentrated by ultrafiltration (Mw=100 kDa, 2000×g, 10 min) and stored at 4° C. until use. The concentrations of each component were measured by using HPLC. Loading capacity and encapsulation efficiency were calculated as follow: […]

[6] = red-light irradiation (625 nm), platinum photosensitizer PtTPBP; ref 17 / US2021/0228719; cited from earlier work
[7] = in toluene, calculated by TD-DFT, referred to previous studies; cited from earlier work
[8] = 690 nm, 100 mW/cm^2, 5 min, 0.1 equiv. Os(bptpy)2^2+, N2-saturated solution
[9] = λex 690 nm, 0.1 eq Os, N2, ε of Os(bptpy)2·2PF6 at 688 nm

Compound	photolytic yield (yield of free drug) [1, 8]	Quantum yield of drug release Φr ([2]; λex 690 nm, 0.1 eq Os, N2)	Quantum yield of prodrug photolysis Φp ([2]; λex 690 nm, 0.1 eq Os, N2)	Cross section Φpε(λex) [2, 9]	Cross section Φrε(λex) [2, 9]	other results
CC1=C(I)C(C)=[N+]2C1=C(COC(=O)/C=C/c1cccc(OCc3ccccc3)c1)c1c(C)c(I)c(C)n1[B-]2(C)C [BODIPY-BCA, BODIPY-benzyloxycinnamic acid]	87.12±3.17%	0.75 ± 0.03%	0.80 ± 0.02%	213.33 ± 7.55 M⁻¹ cm⁻¹	200.64 ± 7.30 M⁻¹ cm⁻¹	
CC1=C(I)C(C)=[N+]2C1=C(COC(=O)Cc1cccc3c(=O)c4ccc(C)c(C)c4oc13)c1c(C)c(I)c(C)n1[B-]2(C)C [BODIPY-DMXAA, BODIPY-vadimezan]	82.52±7.22%	0.71 ± 0.06%	0.87 ± 0.01%	230.30 ± 1.43 M⁻¹ cm⁻¹	190.05 ± 16.63 M⁻¹ cm⁻¹	prodrug decomposition [1, 8]: completely consumed
CC1=C(I)C(C)=[N+]2C1=C(COC(=O)NCCc1ccc(O)c(O)c1)c1c(C)c(I)c(C)n1[B-]2(C)C [BODIPY-DPA, BODIPY-dopamine]	69.04±1.99%	0.60 ± 0.02%	0.86 ± 0.01%	228.90 ± 3.59 M⁻¹ cm⁻¹	159.00 ± 4.58 M⁻¹ cm⁻¹	
COc1ccc(CCNC(=O)OCC2=C3C(C)=C(I)C(C)=[N+]3[B-](C)(C)n3c(C)c(I)c(C)c32)cc1OC [BODIPY-HVA, BODIPY-homoveratrylamine]	74.17±3.97%	0.64 ± 0.03%	0.85 ± 0.04%	224.98 ± 9.83 M⁻¹ cm⁻¹	170.82 ± 9.14 M⁻¹ cm⁻¹	
CC1=C(I)C(C)=[N+]2C1=C(COC(=O)C(C)c1ccc(CC(C)C)cc1)c1c(C)c(I)c(C)n1[B-]2(C)C (centres unmarked) [BODIPY-IBF, BODIPY-ibuprofen]	48.49±4.69%	0.42 ± 0.04%	0.85 ± 0.04%	226.34 ± 10.96 M⁻¹ cm⁻¹	111.67 ± 10.81 M⁻¹ cm⁻¹	
COc1ccc2c(c1)c(CC(=O)OCC1=C3C(C)=C(I)C(C)=[N+]3[B-](C)(C)n3c(C)c(I)c(C)c31)c(C)n2C(=O)c1ccc(Cl)cc1 [BODIPY-IDM, BODIPY-indomethacin]	68.95±4.69%	0.60 ± 0.04%	0.86 ± 0.02%	229.15 ± 5.23 M⁻¹ cm⁻¹	158.79 ± 10.80 M⁻¹ cm⁻¹	
CCCCN(C(=O)OCC1=C2C(C)=C(I)C(C)=[N+]2[B-](C)(C)n2c(C)c(I)c(C)c21)c1ccc(C(=O)OCCN(C)C)cc1 [BODIPY-TCI, BODIPY-tetracaine]	41.34±4.61%	0.36 ± 0.04%	0.81 ± 0.06%	215.84 ± 15.71 M⁻¹ cm⁻¹	95.21 ± 10.62 M⁻¹ cm⁻¹	
CC1=C(I)C(C)=[N+]2C1=C(COC(=O)NCCc1ccc(O)cc1)c1c(C)c(I)c(C)n1[B-]2(C)C [BODIPY-TyrA, BODIPY-tyramine]	46.57±2.37%	0.40 ± 0.02%	0.84 ± 0.02%	223.12 ± 6.28 M⁻¹ cm⁻¹	107.25 ± 5.46 M⁻¹ cm⁻¹	
CCCCCCCCCCCCCCCCCCN1C(=CC=CC=CC=CC2=[N+](CCCCCCCCCCCCCCCCCC)c3ccccc3C2(C)C)C(C)(C)c2ccccc21.[I-] [DiR, 1,1′-dioctadecyl-3,3,3′,3′-tetramethylindotricarbocyanine iodide]						time within which the free dye was completely metabolized [3]: ≤ 8 h
BODIPY-chlorambucil [BODIPY-Cb]	84.17±4.21%	0.73 ± 0.04%	0.84 ± 0.01%	222.80 ± 2.90 M⁻¹ cm⁻¹		E (absorption coefficient at λabs, max) ([4]; at 543 nm): 89400 M⁻¹ cm⁻¹; λabs, max ([4]; dichloromethane solution with 2% acetone, 10 μM): 543 nm; λem, max ([4]; λex = 543 nm): 570^b nm; photocleavage in air-saturated solution ([1]; 530 nm green light, air-saturated): retarded; decomposition of prodrug and generation of free Cb in air-saturated solution ([1]; 690 nm, with Os(bptpy)2^2+, air-saturated): mostly retarded; Loading Capacity [5]: 0.27%; Cross section Φpε(λex) ([2]; λex 530 nm, Air): 2292.95 ± 730.79 M⁻¹ cm⁻¹; Cross section Φrε(λex) ([2]; λex 530 nm, Air): 171.63 ± 24.81 M⁻¹ cm⁻¹; Quantum yield of prodrug photolysis Φp ([2]; λex 530 nm, Air): 3.42 ± 1.09%; Cross section Φpε(λex) ([2]; λex 530 nm, N2): 16017.11 ± 2044.88 M⁻¹ cm⁻¹; Cross section Φrε(λex) ([2]; λex 530 nm, N2): 6016.62 ± 1895.28 M⁻¹ cm⁻¹; Quantum yield of drug release Φr ([2]; λex 530 nm, N2): 6.73 ± 2.12%; Quantum yield of prodrug photolysis Φp ([2]; λex 530 nm, N2): 23.89 ± 3.05%; Cross section Φpε(λex) ([2]; λex 690 nm, 0.1 eq Os, Air): 1.87 ± 1.11 M⁻¹ cm⁻¹; Cross section Φrε(λex) ([2]; λex 690 nm, 0.1 eq Os, Air): 0.49 ± 0.11 M⁻¹ cm⁻¹; max. yield of free Cb, one-photon upconversion-like photolysis [6]: 41.74%; Energy level S1 state [7]: 2.18 eV and 2.18^f eV; Energy level T1 state [7]: 1.52 eV and 1.52^g eV; T1 lifetime [7]: 21.82^e μs
